Drawing on US6989384B2, “Antipicornaviral compounds and compositions, their pharmaceutical uses, and materials for their synthesis” (Agouron Pharmaceuticals, Inc., priority 2000, dated 2006), this text covers CC50, kinact/KI and EC50 for 21 compounds.

Molecules are shown by their SMILES. pEC50: −log10 of the molar value. Read-outs that look alike come from different tables or passages of the source.

Data set [1] in a line: Cytotoxicity in mock-infected H1-HeLa cells (XTT). It is filed as cell-based. Conditions: human, two days, read-out: Toxicity CC50. The protocol: (§1) In this cell protection assay, the ability of compounds to protect cells against HRV infection was measured by the XTT dye reduction method, which is described in Weislow et al., J. Natl. Cancer Inst. 1989, vol. 81, 577–586.
(§2) H1-HeLa cells were infected with HRV-14 at a multiplicity of infection (m.o.i.) of 0.13 (virus particles/cell) or mock-infected with medium only. Infected or mock-infected cells were resuspended at 8×10^5 cells per mL, and incubated with appropriate concentrations of the compounds to be tested. Two days later, XTT/PMS was added to test plates and the amount of formazan produced was quantified spectrophotometrically at 450/650 nm. The EC50 value was calculated as the concentration of compound that increased the percentage of formazan production in compound-treated, virus-infected cells to 50% of that produced by compound-free, mock-infected cells. The 50% cytotoxic dose (CC50) was calculated as the concentration of compound that decreased the percentage of formazan produced in compound-treated, mock-infected cells to 50% of that produced by compound-free, mock-infected cells.
(§3) All strains of human rhinovirus (HRV) for use in this assay were purchased from American Type Culture Collection (ATCC), except for HRV serotype-14 (produced from the infectious cDNA clone constructed by Dr. Robert Rueckert, Institute for Molecular Virology, University of Wisconsin, Madison, Wis.). HRV stocks were propagated and viral assays were performed in H1-HeLa cells (ATCC). Cells were grown in minimal essential medium with 10% fetal bovine serum, available from Life Technologies (Gaithersburg, Md.).

The target of data set [2] is T1, rhinovirus 3C protease from HRV serotype-14 (Human rhinovirus 14, UniProt P03303).
T1 construct: Recombinant rhinovirus 3C proteases; made in house
T1 sequence (P03303 1538-1719): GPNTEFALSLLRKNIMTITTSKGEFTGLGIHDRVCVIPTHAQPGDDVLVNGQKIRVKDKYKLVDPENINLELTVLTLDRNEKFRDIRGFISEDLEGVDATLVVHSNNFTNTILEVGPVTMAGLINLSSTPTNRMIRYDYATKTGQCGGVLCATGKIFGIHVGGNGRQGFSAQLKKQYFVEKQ
In words: Inhibition of rhinovirus 3C protease activity (FRET assay), HRV-14. It is filed as biochemical. The settings on record: read-out: Protease Inhibition kobs/I. The protocol:
Stock solutions (50 mM, in DMSO) of various compounds were prepared; dilutions were in the same solvent. Recombinant rhinovirus 3C proteases (see Birch et al., “Purification of recombinant human rhinovirus 14 3C protease expressed in Escherichia coli,” Protein Expr. Pur. 1995, 6(5), 609–618) from serotypes 14, 16, and 2 were prepared by the following standard chromatographic procedures: (1) ion exchange using Q Sepharose Fast Flow from Pharmacia; (2) affinity chromatography using Affi-Gel Blue from Biorad; and (3) sizing using Sephadex G-100 from Pharmacia. Each assay sample contained 2% DMSO, 50 mM tris pH 7.6, 1 mM EDTA, a test compound at the indicated concentration, approximately 1 μM substrate, and 50–100 nM protease. The kobs/I values were obtained from reactions initiated by addition of enzyme rather than substrate. RVP activity was measured in the fluorescence resonance energy transfer assay. The substrate was (N-terminal) DABCYL-(Gly-Arg-Ala-Val-Phe-Gln-Gly-Pro-Val-Gly)-EDANS. In the uncleaved peptide, the EDANS fluorescence was quenched by the proximal DABCYL group. When the peptide was cleaved, the quenching was relieved, and activity was measured as an increase in fluorescence signal. In the Table, unless otherwise indicated, all data are for rhinovirus 3C protease from HRV serotype-14 (produced from the infectious cDNA clone constructed by Dr. Robert Rueckert, Institute for Molecular Virology, University of Wisconsin, Madison, Wis.). The data in the column designated kobs/[I] were measured from progress curves in enzyme start experiments.

The next data set deals with HRV-14. In words: Antirhinoviral H1-HeLa cell culture assay (cell protection, XTT), HRV-14. It is filed as cell-based, human rhinovirus. Conditions: Rhinovirus B, read-out: Cell Protection EC50. The protocol: as §1, §2, §3
The compounds were tested against control compounds WIN 51711, WIN 52084, and WIN 54954 (obtained from Sterling-Winthrop Pharmaceuticals), Pirodavir (obtained from Janssen Pharmaceuticals), and Pleconaril (prepared according to the method described in Diana et al., J. Med. Chem 1995, vol. 38, 1355). Antiviral data obtained for the test compounds are shown in the Table, where all data are for HRV serotype-14 unless otherwise noted in parentheses.
(Tetrazolium dyes change colour on reduction, which living cells bring about.)

Setting [3] is: HRV-14 3C protease, progress curves, enzyme start.
Setting [4] is: HRV14, 48 h, HRV-14, H1-HeLa cells, XTT, two days.

As usually defined, the CC50 is the concentration that lowers cell viability or growth by half. Broadly, the pEC50 is −log10 of the EC50, conventionally taken in molar units. With `CCOC(=O)/C=C/[C@H](CCC(N)=O)NC(=O)c1cc2ccccc2[nH]1` [Compound 38, 6-carbamyl-4S-[(1H-indole-2-carbonyl)-amino]-hex-2-enoic acid ethyl ester], the CC50 at 2 days in data set [1] was more than 100 µM. In data set [2] (setting [3]), the kinact/KI was found to be 71 M⁻¹ s⁻¹. Moreover, in the data set on HRV-14 (setting [4]), the pEC50 is 6.00.

In the case of `CCOC(=O)/C=C/[C@H](C[C@@H]1CCNC1=O)NC(=O)c1cc2cc(CC)ccc2[nH]1` [Compound 8, 4S-[(5-ethyl-1H-indole-2-carbonyl)-amino]-5-(2-oxo-pyrrolidin-3S-yl)-pent-2-enoic acid ethyl ester], in data set [1], the CC50 at 2 days was more than 10 µM. For the same compound, in data set [2], the kinact/KI was 980 M⁻¹ s⁻¹. Further, in the data set on HRV-14 (HRV14, H1-HeLa, 48 h), the pEC50 was 5.57.

`CCOC(=O)/C=C/[C@H](C[C@@H]1CCNC1=O)NC(=O)/C=C/c1ccc2c(c1)OCO2` [Compound 9, 4S-(3-benzo[1,3]dioxol-5-yl-acryloylamino)-5-(2-oxo-pyrrolidin-3S-yl)-pent-2-enoic acid ethyl ester]: the cytotoxic concentration (CC50) at 2 days in data set [1] is more than 10 µM. For the same compound, the kinact/KI in data set [2] is 1960 M⁻¹ s⁻¹. Moreover, the pEC50 in the data set on HRV-14 (HRV14, H1-HeLa, 48 h) is 5.74.

As for `CCOC(=O)/C=C/[C@H](CCC(N)=O)NC(=O)c1ccccc1CCc1ccccc1` [Compound 37, 6-carbamoyl-4S-(2-phenethyl-benzoylamino)-hex-2-enoic acid ethyl ester], in data set [1], the CC50 at 2 days was more than 100 µM. The kinact/KI in data set [2] (setting [3]) turned out to be 6 M⁻¹ s⁻¹. Besides, the pEC50 in the data set on HRV-14 (setting [4]) was less than 4.00.

Consider `CCOC(=O)/C=C/[C@H](CCC(N)=O)NC(=O)c1ccc(Cl)c(Cl)c1` [Compound 35, 6-carbamoyl-4S-(3,4-dichloro-benzoylamino)-hex-2-enoic acid ethyl ester], for which the CC50 at 2 days in data set [1] stood at 100 µM. Moreover, the kinact/KI in data set [2] (setting [3]) turned out to be 35 M⁻¹ s⁻¹. The pEC50 with HRV-14 (setting [4]) is less than 4.00.

Turning to `CCOC(=O)/C=C/[C@H](C[C@@H]1CCNC1=O)NC(=O)c1cc2cc(OC)ccc2[nH]1` [Compound 41, 4S-[(5-Methoxy-1H-indole-2-carbonyl)-amino]-5-(2-oxo-pyrrolidin-3S-yl)-pent-2-enoic acid ethyl ester], the CC50 at 2 days in data set [1] is more than 100 µM. Moreover, the kinact/KI in data set [2] was determined as 2190 M⁻¹ s⁻¹. For the same compound, the pEC50 in the data set with HRV-14 (HRV14, H1-HeLa, 48 h) was 5.63.

In the case of `CCOC(=O)c1ccc(OCCC2CCN(c3ccc(C)nn3)CC2)cc1` [Pirodavir, reference compound], the CC50 at 2 days in data set [1] was more than 10 µM. In the data set on HRV-14 (setting [4]), the pEC50 was 7.52.

As to `CCOC(=O)/C=C/[C@H](CCC(N)=O)NC(=O)c1cc(C(C)(C)C)nn1Cc1ccccc1` [Compound 33, 4S-[(2-benzyl-5-tert-butyl-2H-pyrazole-3-carbonyl)-amino]-6-carbamoyl-hex-2-enoic acid ethyl ester], the CC50 at 2 days in data set [1] was more than 100 µM. The kinact/KI in data set [2] (setting [3]) stood at 27 M⁻¹ s⁻¹. In addition, in the data set on HRV-14 (setting [4]), the pEC50 is 4.90.

With `CCOC(=O)/C=C/[C@H](C[C@@H]1CCNC1=O)NC(=O)/C=C/c1ccc(F)c(Br)c1` [Compound 48, 4S-[3-(3-Bromo-4-fluoro-phenyl)-acryloylamino]-5-(2-oxo-pyrrolidin-3S-yl)-pent-2-enoic acid ethyl ester], the CC50 at 2 days in data set [1] was more than 100 µM. The kinact/KI in data set [2] came out at 2860 M⁻¹ s⁻¹. The pEC50 in the data set with HRV-14 (HRV14, H1-HeLa, 48 h) was 6.20.

Turning to `CCOC(=O)/C=C/[C@H](C[C@@H]1CCNC1=O)NC(=O)COc1ccc(Cl)c(Cl)c1` [Compound 62, 4S-[2-(3,4-dichloro-phenoxy)-acetylamino]-5-(2-oxo-pyrrolidin-3S-yl)-pent-2-enoic acid ethyl ester], the CC50 at 2 days in data set [1] is more than 10 µM. Also, in data set [2], the kinact/KI amounted to 134 M⁻¹ s⁻¹. Besides, the pEC50 in the data set on HRV-14 (HRV14, H1-HeLa, 48 h) is 5.21.

Take `CCOC(=O)/C=C/[C@H](C[C@@H]1CCNC1=O)NC(=O)Nc1cccc2ccccc12` [Compound 56, 4S-(3-naphthalen-1-yl)-5-(2-oxo-pyrrolidin-3S-yl)-pent-2-enoic acid ethyl ester]: in data set [1], the CC50 at 2 days is more than 10 µM. In data set [2], the kinact/KI came out at 117 M⁻¹ s⁻¹. Further, in the data set with HRV-14 (HRV14, H1-HeLa, 48 h), the pEC50 is less than 5.00.

`CCOC(=O)/C=C/[C@H](CCC(N)=O)NC(=O)c1cnc2ccccc2n1` [Compound 28, 6-carbamoyl-4S-[(quinoxaline-2-carboxyl)-amino]-hex-2-enoic acid ethyl ester]: the CC50 at 2 days in data set [1] is more than 100 µM. Besides, the kinact/KI in data set [2] (setting [3]) was found to be 64 M⁻¹ s⁻¹. In the data set with HRV-14 (setting [4]), the pEC50 is 4.85.

`CCOC(=O)/C=C/[C@H](CCC(N)=O)NC(=O)c1ccc2ccccc2n1` [Compound 31, 6-carbamoyl-4S-[(quinoline-2-carbonyl)-amino]-hex-2-enoic acid ethyl ester]: the CC50 at 2 days in data set [1] is more than 100 µM. In data set [2] (setting [3]), the kinact/KI is 110 M⁻¹ s⁻¹. The negative logarithm of the EC50 (pEC50) in the data set on HRV-14 (setting [4]) was 5.15.

As to `CCOC(=O)/C=C/[C@H](C[C@@H]1CCNC1=O)NC(=O)c1cc2cc(C)ccc2[nH]1` [Compound 43, 4-[(5-Methyl-1H-indole-2-carbonyl)-amino]-5-(2-oxo-pyrrolidin-3-yl)-pent-2-enoic acid ethyl ester], the CC50 at 2 days in data set [1] is more than 100 µM. The kinact/KI in data set [2] worked out at 3460 M⁻¹ s⁻¹. The pEC50 with HRV-14 (HRV14, H1-HeLa, 48 h) is 5.67.

As to `CCOC(=O)/C=C/[C@H](C[C@@H]1CCNC1=O)NC(=O)c1cc2cc(OC)c(OC)cc2n1C` [Compound 19, 4S-[(5,6-dimethoxy-1-methyl-indole-2-carbonyl)-amino]-5-(2-oxo-pyrrolidin-3S-yl)-pent-2-enoic acid ethyl ester], in data set [1], the CC50 at 2 days is more than 10 µM. Moreover, in data set [2], the kinact/KI worked out at 1230 M⁻¹ s⁻¹. Further, the pEC50 in the data set on HRV-14 (HRV14, H1-HeLa, 48 h) is 5.87.

In the case of `CCOC(=O)/C=C/[C@H](CCC(N)=O)NC(=O)c1nn(-c2ccccc2)nc1C` [Compound 32, 6-carbamoyl-4S-[(5-methyl-2-phenyl-2H-[1,2,3]triazole-4-carbonyl)-amino]-hex-2-enoic acid ethyl ester], the CC50 at 2 days in data set [1] was more than 100 µM. Also, the kinact/KI in data set [2] (setting [3]) was 83 M⁻¹ s⁻¹. Besides, in the data set with HRV-14 (setting [4]), the pEC50 was 5.74.

`CCOC(=O)/C=C/[C@H](CCC(N)=O)NC(=O)c1ccccc1COC(=O)c1ccccc1` [Compound 36]: the 50% cytotoxic concentration (CC50) at 2 days in data set [1] is more than 100 µM. Further, the kinact/KI in data set [2] (setting [3]) came out at 10 M⁻¹ s⁻¹. Besides, the pEC50 in the data set on HRV-14 (setting [4]) is less than 4.00.

Consider `CCOC(=O)/C=C/[C@H](C[C@@H]1CCNC1=O)NC(=O)N[C@@H](CC(C)C)C(=O)OCC` [Compound 24, 4S-[3-(1S-ethoxycarbonyl-3-methyl-butyl)-ureido]-5-(2-oxo-pyrrolidin-3S-yl)-pent-2-enoic acid ethyl ester], for which the CC50 at 2 days in data set [1] was more than 10 µM. Besides, in data set [2], the kinact/KI came out at 1050 M⁻¹ s⁻¹. Moreover, the negative-log EC50 (pEC50) with HRV-14 (HRV14, H1-HeLa, 48 h) is 5.34.

Turning to `CCOC(=O)/C=C/[C@H](C[C@@H]1CCNC1=O)NC(=O)c1cc2cc(Br)ccc2n1C` [Compound 21, 4S-[(5-bromo-1-methyl-indole-2-carbonyl)-amino]-5-(2-oxo-pyrrolidin-3S-yl)-pent-2-enoic acid ethyl ester], the CC50 at 2 days in data set [1] stood at 17.8 µM. In addition, the kinact/KI in data set [2] was 1320 M⁻¹ s⁻¹. For the same compound, the pEC50 in the data set on HRV-14 (HRV14, H1-HeLa, 48 h) is 5.51.

For the compound `CCOC(=O)/C=C/[C@H](C[C@@H]1CCNC1=O)NC(=O)C1=Cc2ccccc2OC1` [Compound 67, 4S-[(2H-chromene-3-carbonyl)-amino]-5-(2-oxopyrrolidin-3S-yl)-pent-2-enoic acid ethyl ester], in data set [1], the CC50 at 2 days was more than 100 µM. In data set [2], the kinact/KI came out at 886 M⁻¹ s⁻¹. For the same compound, in the data set with HRV-14 (HRV14, H1-HeLa, 48 h), the pEC50 was 5.92.

Take `Cc1cc(CCCOc2c(C)cc(-c3noc(C(F)(F)F)n3)cc2C)on1` [Pleconaril, reference compound]: the CC50 at 2 days in data set [1] is more than 10 µM. Also, the pEC50 with HRV-14 (setting [4]) was 8.00.
